Test system: calcium ionophore-induced LTB4 biosynthesis
Assay: Inhibition of calcium ionophore-induced LTB4 biosynthesis in human whole blood
Assay type: cell-based
Details: human heparinized whole blood; 15 min preincubation at 37° C.; A23187 8.3 μM, 30 minutes; LTB4 by radioimmunoassay; read-out: IC50, inhibition of leukotriene biosynthesis in human whole blood
Procedure: Inhibition of leukotriene biosynthesis was evaluated in an assay, involving calcium ionophore-induced LTB4 biosynthesis expressed human whole blood. Human heparinized whole blood was proincubated with test compounds or vehicle for 15 min at 37° C. followed by calcium ionophore A23187 challenge (final concentration of 8.3 μM) and the reaction terminated after 30 minutes by adding two volumes of methanol containing prostaglandin B2 as an internal recovery standard. The methanol extract was analyzed for LTB4 using a commercially available radioimmunoassay.

| IC50 [nM] | SMILES |
| --- | --- |
| 2700 | CC1Cc2c(OCc3ccc4ccccc4n3)ccc3c2c(c(CC(C)(C)C=NOCC(=O)O)n3Cc2ccc(Cl)cc2)S1 (centres unmarked) [Example 1, 3-[1-(4-chlorobenzyl)-4-methyl-6-(quinolin-2-ylmethoxy]-4,5-dihydro-1H-thiopyrano[2,3,4-c,d]indol-2-yl]-2,2dimethylpropionaldehyde oxime-O-acetic acid] |
| 400 | CC1Cc2c(OCc3ccc(-c4ccccc4)cn3)ccc3c2c(c(CC(C)(C)C=NOCC(=O)O)n3Cc2ccc(Cl)cc2)S1 (centres unmarked) [Example 2, 3-[1-(4-chlorobenzyl)-4-methyl-6-(5-phenylpyridin-2-ylmethoxy]-4,5-dihydro-1H-thiopyrano[2,3,4-c,d]indol-2-yl]-2,2-dimethylpropionaldehyde oxime-O-acetic acid] |
